Results from ChEMBL document CHEMBL1152263, “Perylene-conjugated pyrrole polyamide as a sequence-specific fluorescent probe” (Bioorg Med Chem, 2008).
Calls of active or inactive are those of the source. The calls are words filed in the database; no cut-off is given here.

How the values were obtained:
[1] = Binding affinity to AT-rich sequence of double strand DNA by fluorescence spectra
[2] = Binding affinity to ODN1/2 double strand DNA by fluorescence spectra

## CC(=O)Nc1cc(C(=O)Nc2cc(C(=O)NCCC(=O)Nc3cc(C(=O)Nc4cc(C(=O)NCCC(=O)NCCCN(C)C)n(C)c4)n(C)c3)n(CC#Cc3ccc4c5cccc6cccc(c7cccc3c74)c65)c2)n(C)c1
[1]
  Activity: Active
[2]
  Activity: Active
